Measured values reported in ChEMBL document CHEMBL3885861, “Open TG-GATES”.

Species: Rattus norvegicus
Test: Open TG-GATES - Regimen: Daily Repeat
Format: toxicity, organism-based, Sprague-Dawley
Set-up: regimen Daily Repeat, gender Male, age 6 weeks
Details: in vivo, po, route gavage; for APTT / Bas / Eos / Hb / Ht / Lym / MCH / MCHC / MCV / Mono / Neu / PT / Plat / RBC / Ret / WBC: tissue Blood; for KIDNEY_L / KIDNEY_R / KIDNEY_TOTAL: tissue Kidney; for LIVER: tissue Liver
[1] = 100 mg/kg, 72 h, dose level Low, time 3 day
[2] = 100 mg/kg, 72 h, tissue Plasma, dose level Low, time 3 day
[3] = 100 mg/kg, […], dose level Low, time 7 day
[4] = 100 mg/kg, […], dose level Low, time 14 day
[5] = 100 mg/kg, […], dose level Low, time 28 day
[6] = 100 mg/kg, […], tissue Plasma, dose level Low, time 7 day
[7] = 100 mg/kg, […], tissue Plasma, dose level Low, time 14 day
[8] = 100 mg/kg, […], tissue Plasma, dose level Low, time 28 day
[9] = 300 mg/kg, 72 h, dose level Middle, time 3 day

C[C@H](CS)C(=O)N1CCC[C@H]1C(=O)O [CAPTOPRIL]
TERMINAL_BW [1]: 236.5 g
APTT [1]: 16.5 s
Bas [1]: 0%
Eos [1]: 1%
Hb [1]: 13.6 g/dL
Ht [1]: 41.2%
Lym [1]: 79.6%
MCH [1]: 21.6 pg
MCHC [1]: 33.1%
MCV [1]: 65.3 fL
Mono [1]: 8.4%
Neu [1]: 11.4%
PT [1]: 11.2 s
Plat [1]: 120 x10_4/uL
RBC [1]: 632.2 x10_4/ul
Ret [1]: 7.1%
WBC [1]: 121.4 x10_2/uL
KIDNEY_L [1]: 0.9 g
KIDNEY_R [1]: 1 g
KIDNEY_TOTAL [1]: 1.9 g
LIVER [1]: 11.7 g
ALP [2]: 857.2 IU/L
ALT [2]: 40.4 IU/L
AST [2]: 67 IU/L
BUN [2]: 21.2 mg/dL
CRE [2]: 0.5 mg/dL
Ca [2]: 11.4 mg/dL
DBIL [2]: 0.01 mg/dL
GLC [2]: 193.6 mg/dL
IP [2]: 8.4 mg/dL
K [2]: 5 meq/L
LDH [2]: 116.8 IU/L
Na [2]: 138.4 meq/L
PL [2]: 150.6 mg/dL
RALB [2]: 4.2 g/dL
TBIL [2]: 0.3 mg/dL
TC [2]: 81 mg/dL
TP [2]: 6.1 g/dL
gamma-GTP [2]: 1.4 IU/L
TERMINAL_BW [3]: 261.5 g
TERMINAL_BW [4]: 305.1 g
TERMINAL_BW [5]: 346.2 g
APTT [3]: 15.6 s
Bas [3]: 0%
Eos [3]: 0.6%
Hb [3]: 13.8 g/dL
Ht [3]: 41.4%
Lym [3]: 84%
MCH [3]: 20.7 pg
MCHC [3]: 33.2%
MCV [3]: 62.4 fL
Mono [3]: 4.8%
Plat [3]: 134.3 x10_4/uL
RBC [3]: 664.8 x10_4/ul
Ret [3]: 4.9%
WBC [3]: 139.3 x10_2/uL
APTT [4]: 16.9 s
Bas [4]: 0%
Eos [4]: 1.2%
Hb [4]: 14.2 g/dL
Ht [4]: 42.9%
Lym [4]: 77%
MCH [4]: 19.9 pg
MCHC [4]: 33.2%
MCV [4]: 60 fL
Mono [4]: 7.6%
Neu [4]: 14.4%
PT [4]: 11.6 s
RBC [4]: 717 x10_4/ul
Ret [4]: 3.5%
WBC [4]: 93.7 x10_2/uL
APTT [5]: 15.9 s
Bas [5]: 0%
Eos [5]: 1.2%
Hb [5]: 14.8 g/dL
Ht [5]: 44.8%
Lym [5]: 83.4%
MCH [5]: 18.8 pg
MCHC [5]: 33.1%
MCV [5]: 56.6 fL
Mono [5]: 5.4%
PT [5]: 11.7 s
RBC [5]: 790.8 x10_4/ul
Ret [5]: 2.4%
WBC [5]: 131.2 x10_2/uL
KIDNEY_L [3]: 1.1 g
KIDNEY_R [3]: 1.2 g
KIDNEY_TOTAL [3]: 2.3 g
KIDNEY_L [4]: 1.2 g
KIDNEY_R [4]: 1.3 g
KIDNEY_TOTAL [4]: 2.5 g
KIDNEY_L [5]: 1.4 g
KIDNEY_R [5]: 1.4 g
KIDNEY_TOTAL [5]: 2.8 g
LIVER [3]: 12.3 g
LIVER [4]: 13.8 g
LIVER [5]: 13.8 g
ALT [6]: 40.8 IU/L
AST [6]: 67.6 IU/L
BUN [6]: 20 mg/dL
CRE [6]: 0.5 mg/dL
DBIL [6]: 0.002 mg/dL
GLC [6]: 203.8 mg/dL
IP [6]: 8.2 mg/dL
K [6]: 5.1 meq/L
LDH [6]: 77 IU/L
Na [6]: 139.2 meq/L
PL [6]: 144.2 mg/dL
RALB [6]: 4 g/dL
TBIL [6]: 0.3 mg/dL
TC [6]: 74.6 mg/dL
TG [6]: 83.6 mg/dL
TP [6]: 6 g/dL
gamma-GTP [6]: 1.8 IU/L
ALP [7]: 862.6 IU/L
ALT [7]: 32.8 IU/L
AST [7]: 61.2 IU/L
BUN [7]: 22.2 mg/dL
CRE [7]: 0.5 mg/dL
DBIL [7]: 0 mg/dL
GLC [7]: 197.6 mg/dL
IP [7]: 7.8 mg/dL
K [7]: 4.8 meq/L
LDH [7]: 85 IU/L
Na [7]: 138.2 meq/L
PL [7]: 151.6 mg/dL
RALB [7]: 4.1 g/dL
TBIL [7]: 0.3 mg/dL
TC [7]: 72.6 mg/dL
TP [7]: 6.1 g/dL
gamma-GTP [7]: 0.8 IU/L
ALP [8]: 701.4 IU/L
ALT [8]: 36.6 IU/L
AST [8]: 65.8 IU/L
BUN [8]: 22.6 mg/dL
CRE [8]: 0.5 mg/dL
DBIL [8]: 0.02 mg/dL
GLC [8]: 194 mg/dL
IP [8]: 7.5 mg/dL
K [8]: 4.9 meq/L
LDH [8]: 116.8 IU/L
Na [8]: 137.2 meq/L
PL [8]: 148.4 mg/dL
RALB [8]: 4.1 g/dL
TBIL [8]: 0.3 mg/dL
TC [8]: 72.8 mg/dL
TG [8]: 114.6 mg/dL
TP [8]: 6.2 g/dL
gamma-GTP [8]: 0.8 IU/L
TERMINAL_BW [9]: 239.8 g
APTT [9]: 16.2 s
Bas [9]: 0%
